Results: patent publication US12655116B2, “Substituted isophthalic acid diamides” (Bayer Aktiengesellschaft, priority 2020, dated 2026)

How the values were obtained:
PHBPU [1] = assay: Pre-emergence herbicidal action against PHBPU; format: in vivo, Pharbitis purpurea; conditions: dosage 80 g/ha
In short: (§1)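 Greenhouse pots of sandy loam held seeds covered with soil, onto which the compound was applied before emergence. An aqueous suspension or emulsion of WP or EC was used at 600 to 800 l/ha with 0.2% wetting agent. Percent damage was judged visually at 3 weeks.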

ECHCG [2] = assay: Post-emergence herbicidal action against ECHCG; format: in vivo, Echinochloa crus-galli
In short: (§2)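 A WP or EC formulation diluted in water with 0.2% wetting agent was sprayed at 600 to 800 l/ha onto one-leaf-stage plants grown in sandy loam. About 3 weeks later, action was rated visually in percent, 100% being dead plants.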

DIGSA [3] = assay: Pre-emergence herbicidal action against DIGSA; format: in vivo, Digitaria sanguinalis
In short: as §1

ALOMY [4] = assay: Post-emergence herbicidal action against ALOMY; format: in vivo, Alopecurus myosuroides; conditions: dosage 20 g/ha, visual assessment about 3 weeks after treatment vs untreated controls
In short: as §2

ABUTH [5] = assay: Post-emergence herbicidal action against ABUTH; format: in vivo, Abutilon theophrasti; conditions: visual assessment about 3 weeks after treatment vs untreated controls
In short: as §2

AMARE [6] = assay: Pre-emergence herbicidal action against AMARE; format: in vivo, Amaranthus retroflexus
In short: as §1

ALOMY [7] = assay: Pre-emergence herbicidal action against ALOMY; format: in vivo, Alopecurus myosuroides; conditions: for Pre-emergence action against ALOMY (herbicidal activity): 80 g/ha, scored visually after 3 weeks vs untreated controls (100% = plants have died, 0% = like control plants)
In short: as §1

MATIN [8] = assay: Pre-emergence herbicidal action against MATIN; format: in vivo, Matricaria inodora
In short: as §1

ECHCG [9] = assay: Pre-emergence herbicidal action against ECHCG; format: in vivo, Echinochloa crus-galli; conditions: 80 g/ha
In short: as §1

VIOTR [10] = assay: Pre-emergence herbicidal action against VIOTR; format: in vivo, Viola tricolor
In short: as §1

POLCO = assay: Pre-emergence herbicidal action against POLCO; format: in vivo, Polygonum convolvulus
In short: as §1

VERPE [11] = assay: Post-emergence herbicidal action against VERPE; format: in vivo, Veronica persica
In short: as §2

VERPE [12] = assay: Pre-emergence herbicidal action against VERPE; format: in vivo, Veronica persica
In short: as §1

ABUTH [13] = assay: Pre-emergence herbicidal action against ABUTH; format: in vivo, Abutilon theophrasti; conditions: for Pre-emergence action against ABUTH (herbicidal activity): 80 g/ha, scored visually after 3 weeks vs untreated controls (100% = plants have died, 0% = like control plants); for Pre-emergence action against ABUTH (herbicidal activity in percent): dosage 20 g/ha, scored visually after 3 weeks vs untreated controls, 100% = plants have died, 0% = like control plants
In short: as §1

DIGSA [14] = assay: Post-emergence herbicidal action against DIGSA; format: in vivo, Digitaria sanguinalis; conditions: for Post-emergence action against DIGSA: 20 g/ha; for Post-emergence action against DIGSA in %: 5 g/ha
In short: as §2

SETVI [15] = assay: Pre-emergence herbicidal action against SETVI; format: in vivo, Setaria viridis
In short: as §1

AMARE [16] = assay: Post-emergence herbicidal action against AMARE; format: in vivo, Amaranthus retroflexus; conditions: 20 g/ha, visual assessment about 3 weeks after treatment, 100% = plants have died, 0% = like control plants
In short: as §2

PHBPU [17] = assay: Post-emergence herbicidal action against PHBPU; format: in vivo, Pharbitis purpurea
In short: as §2

VIOTR [18] = assay: Post-emergence herbicidal action against VIOTR; format: in vivo, Viola tricolor
In short: as §2

SETVI [19] = assay: Post-emergence herbicidal action against SETVI; format: in vivo, Setaria viridis
In short: as §2

MATIN [20] = assay: Post-emergence herbicidal action against MATIN; format: in vivo, Matricaria inodora
In short: as §2

AVEFA = assay: Pre-emergence herbicidal action against AVEFA; format: in vivo, Avena fatua; conditions: 80 g/ha, pre-emergence
In short: as §1

[21] = 20 g/ha, scored visually after 3 weeks vs untreated controls, 100% = plants have died, 0% = like control plants
[22] = 80 g/ha, scored visually after 3 weeks vs untreated controls (100% = plants have died, 0% = like control plants)

SMILES | Pre-emergence action against PHBPU in % (PHBPU [1]) | Post-emergence action against ECHCG in % (ECHCG [2]; dosage 20 g/ha) | Pre-emergence action against DIGSA in % (DIGSA [3]; dosage 20 g/ha) | Pre-emergence action against DIGSA in % (DIGSA [3]; dosage 80 g/ha) | Post-emergence action against ALOMY in % (ALOMY [4]) | Post-emergence action against ABUTH in % (ABUTH [5]; dosage 20 g/ha) | Pre-emergence action against AMARE in % (AMARE [6]; [21]) | Pre-emergence action against AMARE in % (AMARE [6]; [22]) | Pre-emergence action against ALOMY (herbicidal activity) (ALOMY [7]) | Pre-emergence action against MATIN in % (MATIN [8]; dosage 80 g/ha) | Pre-emergence action against ECHCG in % (ECHCG [9]) | Pre-emergence action against VIOTR in % (VIOTR [10]; dosage 80 g/ha) | Pre-emergence action against POLCO in % (POLCO; dosage 80 g/ha) | Post-emergence action against VERPE in % (VERPE [11]; 20 g/ha) | Pre-emergence action against VERPE in % (VERPE [12]; dosage 80 g/ha) | Pre-emergence action against ABUTH (herbicidal activity) (ABUTH [13]) | Pre-emergence action against ABUTH (herbicidal activity in percent) (ABUTH [13]) | Pre-emergence action against SETVI in % (SETVI [15]; dosage 80 g/ha) | Post-emergence action at 20 g/ha against AMARE in % (AMARE [16]) | Post-emergence action against PHBPU in % (PHBPU [17]; dosage 20 g/ha) | also measured
Cc1nnc(NC(=O)c2ccc(C(F)F)c(C(=O)NC(C)C3CC3)c2C)o1 (stereo not drawn) [Example 6-258] | 90% | 90% | 100% | 100% | 80% | 90% | 100% | 100% | 90% | 90% | 100% | 80% | 80% | 80% | 100% | 100% | 100% | 80% | 90% | – | Post-emergence action against ECHCG in % (ECHCG [2]; dosage 5 g/ha): 80%; Post-emergence action against ABUTH in % (ABUTH [5]; dosage 5 g/ha): 80%; Pre-emergence action against VERPE in % (VERPE [12]; dosage 20 g/ha): 90%; Post-emergence action against DIGSA (DIGSA [14]): 90%
CCn1nnnc1NC(=O)c1ccc(C(F)(F)F)c(C(=O)NC)c1OC [Example 2-56] | 80% | 100% | 100% | 100% | 80% | 100% | 100% | 100% | 90% | 100% | 90% | 90% | 90% | 80% | 100% | 100% | 100% | 100% | 100% | 90% | Post-emergence action against PHBPU in % (PHBPU [17]; dosage 5 g/ha): 80%; Post-emergence action against VIOTR in % (VIOTR [18]; 5 g/ha): 80%; Post-emergence action against VIOTR in % (VIOTR [18]; 20 g/ha): 100%; Post-emergence action against ABUTH in % (ABUTH [5]; dosage 5 g/ha): 100%; Post-emergence action against SETVI in % (SETVI [19]; dosage 5 g/ha): 80%; Post-emergence action against SETVI in % (SETVI [19]; dosage 20 g/ha): 100%; Pre-emergence action against MATIN in % (MATIN [8]; dosage 20 g/ha): 90%; Pre-emergence action against VIOTR in % (VIOTR [10]; dosage 20 g/ha): 80%; Pre-emergence action against VERPE in % (VERPE [12]; dosage 20 g/ha): 80%; Post-emergence action against MATIN in % (MATIN [20]; dosage 5 g/ha): 80%; Post-emergence action against MATIN in % (MATIN [20]; dosage 20 g/ha): 90%; Post-emergence action against DIGSA in % (DIGSA [14]): 90%; Post-emergence action against DIGSA (DIGSA [14]): 100%; Pre-emergence action against SETVI in % (SETVI [15]; dosage 20 g/ha): 100%
CCn1nnnc1NC(=O)c1ccc(C(F)(F)F)c(C(=O)NCC2CC2)c1C1CC1 [Example 2-289] | 80% | 90% | 100% | 100% | 90% | 80% | 100% | 100% | 90% | 100% | 100% | 100% | 80% | 100% | 100% | 100% | 100% | 90% | 100% | 90% | Post-emergence action against ECHCG in % (ECHCG [2]; dosage 5 g/ha): 80%; Post-emergence action against VIOTR in % (VIOTR [18]; 20 g/ha): 90%; Post-emergence action against SETVI in % (SETVI [19]; dosage 20 g/ha): 80%; Pre-emergence action against MATIN in % (MATIN [8]; dosage 20 g/ha): 90%; Pre-emergence action against VIOTR in % (VIOTR [10]; dosage 20 g/ha): 100%; Post-emergence action against VERPE in % (VERPE [11]; 5 g/ha): 80%; Post-emergence action against MATIN in % (MATIN [20]; dosage 5 g/ha): 80%; Post-emergence action against MATIN in % (MATIN [20]; dosage 20 g/ha): 90%; Post-emergence action against DIGSA in % (DIGSA [14]): 90%; Post-emergence action against DIGSA (DIGSA [14]): 100%
CC(NC(=O)c1c(C(F)(F)F)ccc(C(=O)Nc2nnnn2C)c1C1CC1)C1CC1 (stereo not drawn) [Example 1-292] | 80% | 80% | – | – | 80% | 80% | 100% | 100% | 90% | 100% | 90% | 100% | 90% | 90% | 100% | 100% | 100% | 100% | 100% | 80% | Post-emergence action against ECHCG in % (ECHCG [2]; dosage 5 g/ha): 80%; Post-emergence action against PHBPU in % (PHBPU [17]; dosage 5 g/ha): 80%; Post-emergence action against VIOTR in % (VIOTR [18]; 20 g/ha): 80%; Pre-emergence action against ALOMY (ALOMY [7]; 20 g/ha, scored visually after 3 weeks, 100% = plants have died, 0% = like control plants): 80%; Post-emergence action against SETVI in % (SETVI [19]; dosage 20 g/ha): 90%; Pre-emergence action against MATIN in % (MATIN [8]; dosage 20 g/ha): 100%; Pre-emergence action against VIOTR in % (VIOTR [10]; dosage 20 g/ha): 90%; Post-emergence action against VERPE in % (VERPE [11]; 5 g/ha): 80%; Pre-emergence action against VERPE in % (VERPE [12]; dosage 20 g/ha): 100%; Post-emergence action against MATIN in % (MATIN [20]; dosage 5 g/ha): 80%; Post-emergence action against MATIN in % (MATIN [20]; dosage 20 g/ha): 80%
CCn1nnnc1NC(=O)c1ccc(Br)c(C(=O)NC(C)C2CC2)c1Cl (stereo not drawn) [Example 2-183] | 90% | 90% | 90% | 100% | 80% | – | 90% | 100% | 90% | 100% | 90% | 100% | 90% | 90% | 90% | 100% | 100% | 100% | – | 80% | Post-emergence action against VIOTR in % (VIOTR [18]; 5 g/ha): 100%; Post-emergence action against VIOTR in % (VIOTR [18]; 20 g/ha): 100%; Pre-emergence action against MATIN in % (MATIN [8]; dosage 20 g/ha): 90%; Pre-emergence action against POLCO in % (POLCO; dosage 20 g/ha): 90%; Post-emergence action against MATIN in % (MATIN [20]; dosage 5 g/ha): 80%; Post-emergence action against MATIN in % (MATIN [20]; dosage 20 g/ha): 90%; Pre-emergence action against AVEFA in % (AVEFA): 80%
